Data on three compounds can be found in patent US9051418B2, “Glucose-PEG conjugates for reducing glucose transport into a cell” (Agency for Science, Technology and Research, priority 2008, dated 2015).

Entries after “also recorded” stand apart in the source; their conditions may differ.

Assay [1] has as its system SkBr3 (human breast cancer) cell line. As to conditions: SkBr3, concentration of 4 mM; cited from earlier work.
The next assay relates to tumor. Particulars: animal studies, supplemental 2-DG; cited from earlier work.
Assay [2] deals with different cancer cell lines. As to conditions: 200 μM, MTT, Table 1. The method, then:
MTT assay was carried out to monitor the viability of the cells. Values obtained for the cells without any treatments were kept as 100%.
Different cancer cell lines, MCF-7 (breast cancer), H1299 (lung cancer), HepG2 (liver cancer), DU145 (prostate cancer), Caco2 (colon cancer) and AGS (gastric cancer) were obtained from American Type Culture Collection (ATCC). Normal breast epithelial cell line (MCF-10A) was used for comparison. The cells were maintained in the growth medium as described by ATCC. Approximately 10,000 cells were seeded onto a 96-well plate. Modified glucose compounds were added to the cells after 24 h of seeding. The cells were further cultured in the presence of the modified glucose compounds for up to 7 days. The medium was changed everyday along with the specified concentration of modified glucose.
MTT assay was performed using the TACS™ MTT cell proliferation assay kit (Trevigen Inc, Md., USA). Briefly, after treatment of cells, 10 μl of MTT reagent was added and incubated at 37° C. for 4 h. The cells were lysed using detergent for 4 h at room temperature. The absorbance was measured in a standard plate reader at 570 nm.

For another assay, the system named is DU145. As to conditions: DU145, 200 μM, 3 days.
A further assay deals with H1299. Particulars: H1299, 200 μM, 3 days.
In assay [3] the test system is MCF-7 cells. Kind of assay: Fluorescence imaging of cells labeled with GPB. Format: cell-based, human. As to conditions: MCF-7, live fluorescence imaging after incubation and PBS wash. The protocol:
They were washed with PBS before fluorescence imaging. Scale bar=500 μm. The MCF-7 cells were seeded on a 6-well plate at least 24 h prior to imaging. […] The cells were washed with PBS (without calcium and magnesium) thrice. Live imaging was performed with fluorescence microscopy. Metamorph (Molecular Devices, USA) and Image J (freeware from NIH, USA) were used for image capturing and processing.

The next assay addresses T1, GLUT1 (Homo sapiens, UniProt P11166).
T1 construct: host or cells: MCF-7 human breast cancer cells
T1 sequence (P11166 1-492): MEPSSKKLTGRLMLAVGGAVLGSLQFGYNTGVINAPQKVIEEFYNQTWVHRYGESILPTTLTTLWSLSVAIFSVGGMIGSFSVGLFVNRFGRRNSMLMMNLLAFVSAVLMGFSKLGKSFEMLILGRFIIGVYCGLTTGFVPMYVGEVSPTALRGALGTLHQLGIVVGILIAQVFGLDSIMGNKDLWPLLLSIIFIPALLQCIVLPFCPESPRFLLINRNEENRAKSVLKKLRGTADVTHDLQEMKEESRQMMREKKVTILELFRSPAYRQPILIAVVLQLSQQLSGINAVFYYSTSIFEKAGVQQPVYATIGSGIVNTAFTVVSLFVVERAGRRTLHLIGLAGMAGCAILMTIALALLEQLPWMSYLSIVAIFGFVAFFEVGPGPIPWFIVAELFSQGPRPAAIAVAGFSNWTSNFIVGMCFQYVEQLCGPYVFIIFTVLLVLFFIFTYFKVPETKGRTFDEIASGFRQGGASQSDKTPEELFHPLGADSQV
Kind of assay: Glucose competition binding assay with GPB fluorescence. Particulars: MCF-7, 200 μM GPB, glucose 10-40 mM, 30 min, 37° C. The method, then:
FIG. 6: Competition assay. […] The cells were incubated for 30 min at 37° C. The cells were washed with PBS, and the total intensity was measured using a plate reader.
FIG. 10: Binding of GBP to GLUT1. […] After 30 minutes the fluorescence intensity was measured using a plate reader.
The medium was removed and the cells were washed briefly with PBS twice. The fluorescence intensity was measured with an excitation of 488 nm and an emission of 522 nm. The fluorescence intensity was normalized by that of the control cells.
A glucose competition assay was carried out to confirm that the modified glucose-PEG is binding to the GLUT1 receptors. Increasing concentrations of un-modified glucose were used. […] After 30 minutes the fluorescence intensity was measured using a plate reader.

For assay [4], the system named is MCF-7 cells. Briefly: MTT cell viability assay, MCF-7 cells cultured 7 days with modified glucose. Particulars: MCF-7, different concentrations. The method, then: MCF-7 cells were seeded onto 96-well plates at least 24 h prior to the experiment. […] MTT assay was performed to assess the cell viability. […] Cell viability was normalized with that of the control cells. […] The cells were treated as described in FIG. 3, followed by the MTT assay. […] MTT assay was carried out to monitor the viability of the cells. Values obtained for the cells without any treatments were kept as 100%. Different cancer cell lines, MCF-7 (breast cancer), H1299 (lung cancer), HepG2 (liver cancer), DU145 (prostate cancer), Caco2 (colon cancer) and AGS (gastric cancer) were obtained from American Type Culture Collection (ATCC). Normal breast epithelial cell line (MCF-10A) was used for comparison. The cells were maintained in the growth medium as described by ATCC. Approximately 10,000 cells were seeded onto a 96-well plate. Modified glucose compounds were added to the cells after 24 h of seeding. The cells were further cultured in the presence of the modified glucose compounds for up to 7 days. The medium was changed everyday along with the specified concentration of modified glucose. […] MTT assay was performed using the TACS™ MTT cell proliferation assay kit (Trevigen Inc, Md., USA). Briefly, after treatment of cells, 10 μl of MTT reagent was added and incubated at 37° C. for 4 h. […] The absorbance was measured in a standard plate reader at 570 nm.
(In general: Tetrazolium dyes change colour on reduction, which living cells bring about.)

Procedure for H1299: Human lung cancer cells (H1299) were treated for 3 days with 200 μM of modified glucose (GBrP). Control cells were prepared without treatment. Total RNA was extracted from the cells and reverse transcribed. A PCR array containing primers to identify the apoptotic pathway was used to identify the apoptosis pathway between control and treated cells in lung cancer cells.
Gene expression analysis was carried out to understand the apoptosis pathway during the modified glucose mediated cell death.

For the compound `O=CC[C@@H](O)[C@H](O)[C@H](O)CO` [2-DG, 2-deoxyglucose], in assay [1], the apoptotic cells is listed as 50%. The tumor growth result in the assay on tumor is reported as “growth of the tumor was inhibited”.
As to glucose-conjugated branched PEG [GBrP], in assay [2], the “inhibition of viability of various different cancer cell lines” value is given as “significantly inhibit the viability”. Besides, the “apoptosis pathway gene expression, treated vs control” value with DU145 was “AKT1 and ABL1 were down regulated while APAF1 and TP53BP were upregulated”; in the assay with H1299 it was “AKT1 and ABL1 were down regulated while APAF1 and TP53BP were upregulated”.
With Glucose-PEG-BODIPY [GPB], in the assay on MCF-7 cells [3], the “localization of fluorescence in cells” value is “localized on the plasma membrane of the cells”. In addition, the “competition of un-modified glucose with GPB binding (fluorescence intensity)” value on GLUT1 is on record as “glucose competed with the GPB in binding to the GLUTs; also recorded: intensity of the fluorescence decreases with the increase in un-modified glucose”. Moreover, the “dose-dependent effect on cell viability” value in the assay with MCF-7 cells [4] is “gradual dose-dependent decrease in the cell viability”.
